Measurements as given in patent US20100267561A1, “HERBICIDAL PYRIDAZINONE DERIVATIVES” (priority 2007, published 2010).

Assays:
Format in all cases: in vivo
[1] = test system: Italian ryegrass (Lolium multiflorum); test: Test C pre-/postemergence plant response; conditions: Preemergence
Description: (§1) Seeds of plant species selected from annual bluegrass (Poa annua), blackgrass (Alopecurus myosuroides), canola (Brassica rapa), downy bromegrass (Bromus tectorum), green foxtail (Setaria viridis), Italian ryegrass (Lolium multiflorum), canarygrass (Phalaris minor), pigweed (Amaranthus retroflexus), spring barley (Hordeum vulgare), spring wheat (Triticum aestivum), wild mustard (Sinapis arvensis), wild oat (Avena fatua), windgrass (Apera spica-venti), winter barley (Hordeum vulgare), and winter wheat (Triticum aestivum) were planted and treated preemergence with test chemicals formulated in a non-phytotoxic solvent mixture which included a surfactant. At the same time, plants selected from these crop and weed species were treated with postemergence applications of some of the test chemicals formulated in the same manner. Plants ranged in height from 2 to 18 cm (1- to 4-leaf stage) for postemergence treatments.
(§2) Treated plants and controls were maintained in a controlled growth environment for 15 to 25 days after which time all species were compared to controls and visually evaluated. Plant response ratings, summarized in Table C, are based on a scale of 0 to 100 where 0 is no effect and 100 is complete control. A dash (-) response means no test result.

[2] = test system: spring wheat (Triticum aestivum); test: Test C pre-/postemergence plant response; conditions: Preemergence
Description: as §1, §2

[3] = test system: winter barley (Hordeum vulgare); test: Test C pre-/postemergence plant response; conditions: Preemergence
Description: as §1, §2

wild oat (Avena fatua) = test: Test C pre-/postemergence plant response; conditions: Preemergence
Description: as §1, §2

[4] = test system: green foxtail (Setaria viridis); test: Test C pre-/postemergence plant response; conditions: Preemergence
Description: as §1, §2

[5] = test system: downy bromegrass (Bromus tectorum); test: Test C pre-/postemergence plant response; conditions: Preemergence
Description: as §1, §2

[6] = test system: windgrass (Apera spica-venti); test: Test C pre-/postemergence plant response; conditions: Preemergence
Description: as §1, §2

[7] = test system: spring barley (Hordeum vulgare); test: Test C pre-/postemergence plant response; conditions: Preemergence
Description: as §1, §2

[8] = test system: annual bluegrass (Poa annua); test: Test C pre-/postemergence plant response; conditions: Preemergence, scale 0 to 100 (0 no effect, 100 complete control)
Description: as §1, §2

[9] = test system: pigweed (Amaranthus retroflexus); test: Test C pre-/postemergence plant response; conditions: Preemergence
Description: as §1, §2

[10] = test system: winter wheat (Triticum aestivum); test: Test C pre-/postemergence plant response; conditions: Preemergence
Description: as §1, §2

[11] = test system: blackgrass (Alopecurus myosuroides); test: Test C pre-/postemergence plant response; conditions: Preemergence
Description: as §1, §2

[12] = test system: canarygrass (Phalaris minor); test: Test C pre-/postemergence plant response; conditions: Preemergence
Description: as §1, §2

[13] = test system: wild mustard (Sinapis arvensis); test: Test C pre-/postemergence plant response; conditions: Preemergence
Description: as §1, §2

[14] = test system: wheat (Triticum aestivum); test: Test A pre-/postemergence plant response
Summary of the method: (§3)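 Scores reflect visual plant injury relative to untreated controls on a 0–100 scale, recorded approximately 10 days after simultaneous preemergence soil spraying and postemergence spraying of one- to two-leaf seedlings grown in loam–sand.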

[15] = test system: pigweed (Amaranthus retroflexus); test: Test A pre-/postemergence plant response
Summary of the method: as §3

[16] = 8 g ai/ha, scale 0 to 100 (0 no effect, 100 complete control)
[17] = 16 g ai/ha, scale 0 to 100 (0 no effect, 100 complete control)
[18] = 31 g ai/ha, scale 0 to 100 (0 no effect, 100 complete control)
[19] = 62 g ai/ha, scale 0 to 100, 0 no effect, 100 complete control
[20] = Postemergence, 125 g ai/ha, 0 to 100 scale, 0 no effect, 100 complete control
[21] = Postemergence, 500 g ai/ha, 0 to 100 scale, 0 no effect, 100 complete control
[22] = Preemergence, 125 g ai/ha, 0 to 100 scale (0 no effect, 100 complete control)
[23] = Preemergence, 500 g ai/ha, 0 to 100 scale (0 no effect, 100 complete control)

With CCc1cc(-c2ccc(Cl)cc2)nn1-c1c(O)cnn(C)c1=O [Compound 21] the “Plant response rating, Ryegrass, Italian” value [1, 16] was 98, the “Plant response rating, Ryegrass, Italian” value [1, 17] was 100 and the “Plant response rating, Ryegrass, Italian” value [1, 18] was 100. For the same compound, the “Plant response rating, Ryegrass, Italian” value [1, 19] was 100, the “Plant response rating, Wheat, Spring” value [2, 16] was 30 and the “Plant response rating, Wheat, Spring” value [2, 17] was 40. For the same compound, the “Plant response rating, Wheat, Spring” value [2, 18] was 60, the “Plant response rating, Wheat, Spring” value [2, 19] was 90 and the “Plant response rating, Barley, Winter” value [3, 16] was 20. For the same compound, the “Plant response rating, Barley, Winter” value [3, 17] was 40, the “Plant response rating, Barley, Winter” value [3, 18] was 50 and the “Plant response rating, Barley, Winter” value [3, 19] was 75. The “Plant response rating, Oat, Wild” value (wild oat (Avena fatua); [16]) was 65, the “Plant response rating, Oat, Wild” value (wild oat (Avena fatua); [17]) was 75 and the “Plant response rating, Oat, Wild” value (wild oat (Avena fatua); [18]) was 95. For the same compound, the “Plant response rating, Oat, Wild” value (wild oat (Avena fatua); [19]) was 100, the “Plant response rating, Foxtail, Green” value [4, 16] was 50 and the “Plant response rating, Foxtail, Green” value [4, 17] was 100. The “Plant response rating, Foxtail, Green” value [4, 18] was 100, the “Plant response rating, Foxtail, Green” value [4, 19] was 100 and the “Plant response rating, Bromegrass, Downy” value [5, 16] was 0. For the same compound, the “Plant response rating, Bromegrass, Downy” value [5, 17] was 40, the “Plant response rating, Bromegrass, Downy” value [5, 18] was 75 and the “Plant response rating, Bromegrass, Downy” value [5, 19] was 95. The “Plant response rating, Windgrass” value [6, 16] was 100, the “Plant response rating, Windgrass” value [6, 17] was 100 and the “Plant response rating, Windgrass” value [6, 18] was 100. The “Plant response rating, Windgrass” value [6, 19] was 100, the “Plant response rating, Barley, Spring” value [7, 16] was 20 and the “Plant response rating, Barley, Spring” value [7, 17] was 35. For the same compound, the “Plant response rating, Barley, Spring” value [7, 18] was 60, the “Plant response rating, Barley, Spring” value [7, 19] was 75 and the “Plant response rating, Bluegrass” value ([8]; 8 g ai/ha) was 0. The “Plant response rating, Bluegrass” value ([8]; 16 g ai/ha) was 0, the “Plant response rating, Pigweed” value [9, 16] was 0 and the “Plant response rating, Pigweed” value [9, 17] was 0. For the same compound, the “Plant response rating, Pigweed” value [9, 18] was 0, the “Plant response rating, Pigweed” value [9, 19] was 0 and the “Plant response rating, Wheat, Winter” value [10, 16] was 0. For the same compound, the “Plant response rating, Wheat, Winter” value [10, 17] was 50, the “Plant response rating, Wheat, Winter” value [10, 18] was 60 and the “Plant response rating, Wheat, Winter” value [10, 19] was 95. For the same compound, the “Plant response rating, Blackgrass” value [11, 16] was 95, the “Plant response rating, Blackgrass” value [11, 17] was 98 and the “Plant response rating, Blackgrass” value [11, 18] was 100. The “Plant response rating, Blackgrass” value [11, 19] was 100, the “Plant response rating, Canarygrass” value [12, 16] was 65 and the “Plant response rating, Canarygrass” value [12, 17] was 75. For the same compound, the “Plant response rating, Canarygrass” value [12, 18] was 90, the “Plant response rating, Canarygrass” value [12, 19] was 100 and the “Plant response rating, Mustard, Wild” value [13, 16] was 0. The “Plant response rating, Mustard, Wild” value [13, 17] was 0, the “Plant response rating, Mustard, Wild” value [13, 18] was 0 and the “Plant response rating, Mustard, Wild” value [13, 19] was 0. For the same compound, the “Plant response rating, Wheat” value [14, 20] was 60, the “Plant response rating, Wheat” value [14, 21] was 80 and the “Plant response rating, Wheat” value [14, 22] was 90. The “Plant response rating, Wheat” value [14, 23] was 100, the “Plant response rating, Pigweed” value [15, 20] was 0 and the “Plant response rating, Pigweed” value [15, 21] was 0. The “Plant response rating, Pigweed” value [15, 22] was 0 and the “Plant response rating, Pigweed” value [15, 23] was 0.
